The text below walks through data of paper PMC7587356, “High-Throughput Screening for Inhibitors of the SARS-CoV-2 Protease Using a FRET-Biosensor” (Molecules, 2020).

For this experiment, the target named is SARS-CoV-2 3CLpro (Severe acute respiratory syndrome coronavirus 2, UniProt P0DTD1). In words: biochemical. Format: biochemical. Details: Replicate_1 / Replicate_2 / mean / mean (LOPAC_screen_w_protease): unit not given here. The settings on record: for mean (LOPAC screen with protease) / Replicate_1 (LOPAC screen with protease) / Replicate_2 (LOPAC screen with protease): primary screen at 5 µM; for inhibition at 5 µM: 4 h.

[1] abbreviates: sheet LOPAC_screen_w_protease, primary screen with protease, 5 µM, mean of two replicates.
Where [2] appears, read: sheet LOPAC_screen_w_protease, primary screen with protease, 5 µM, replicate 1.
Where [3] appears, read: sheet LOPAC_screen_w_protease, primary screen with protease, 5 µM, replicate 2.
The mark [4] stands for this setting: sheet LOPAC_screen_w_protease, primary screen with protease, compound at 5 µM, mean of two replicates.
The mark [5] stands for this setting: sheet LOPAC_screen_w_protease, primary screen with protease, compound at 5 µM, replicate 2.
The mark [6] stands for this setting: sheet LOPAC_screen_w_protease, LOPAC1280 at 5 µM, mean of two replicates.
[7] abbreviates: sheet LOPAC_screen_w_protease, LOPAC1280 at 5 µM, replicate 1.
Where [8] appears, read: sheet LOPAC_screen_w_protease, LOPAC1280 at 5 µM, replicate 2.
[9] abbreviates: LOPAC1280 primary screen with protease, 5 µM compound, mean of the two replicates.
Setting [10] is: LOPAC1280 primary screen with protease, 5 µM compound, replicate 1.
Setting [11] is: LOPAC1280 primary screen with protease, 5 µM compound, replicate 2.
[12] abbreviates: sheet LOPAC_screen_w_protease, mean of two replicates.
The mark [13] stands for this setting: sheet LOPAC_screen_w_protease, replicate 1.
Setting [14] is: sheet LOPAC_screen_w_protease, replicate 2.
The mark [15] stands for this setting: LOPAC1280 primary screen with protease, 5 µM compound, replicate 1, read-out: Replicate_1 (LOPAC_screen_w_protease).
The mark [16] stands for this setting: LOPAC1280 primary screen with protease, 5 µM compound, replicate 2, read-out: Replicate_2 (LOPAC_screen_w_protease).
Where [17] appears, read: sheet LOPAC_screen_w_protease, LOPAC1280 primary screen at 5 µM, with protease, mean of the two replicates, read-out: mean.
Where [18] appears, read: sheet LOPAC_screen_w_protease, LOPAC1280 primary screen at 5 µM, with protease, replicate 1, read-out: Replicate_1.
The mark [19] stands for this setting: sheet LOPAC_screen_w_protease, LOPAC1280 primary screen at 5 µM, with protease, replicate 2, read-out: Replicate_2.
The mark [20] stands for this setting: sheet LOPAC_screen_w_protease, primary screen with protease, mean of two replicates, read-out: mean.
The mark [21] stands for this setting: sheet LOPAC_screen_w_protease, primary screen with protease, replicate 1, read-out: Replicate_1.
Where [22] appears, read: sheet LOPAC_screen_w_protease, primary screen with protease, replicate 2, read-out: Replicate_2.
Where [23] appears, read: sheet LOPAC_screen_w_protease, LOPAC1280 primary screen at 5 µM, with protease, mean of the two replicates.
Setting [24] is: sheet LOPAC_screen_w_protease, LOPAC1280 primary screen at 5 µM, with protease, replicate 1.
[25] abbreviates: sheet LOPAC_screen_w_protease, LOPAC1280 primary screen at 5 µM, with protease, replicate 2.
The mark [26] stands for this setting: sheet LOPAC_screen_w_protease, LOPAC1280 at 5 µM, mean of two replicates, read-out: mean.
[27] abbreviates: sheet LOPAC_screen_w_protease, LOPAC1280 at 5 µM, replicate 1, read-out: Replicate_1.
The mark [28] stands for this setting: sheet LOPAC_screen_w_protease, LOPAC1280 at 5 µM, replicate 2, read-out: Replicate_2.

Where a name gives a salt, the structure may show the parent alone. Read-outs that look alike come from different tables or passages of the source.

In turn, `C[C@]12CCC(=O)C(O)=C1CC[C@@H]1[C@@H]2CC[C@]2(C)C(=O)CC[C@@H]12` [4-Androsten-4-ol-3,17-dione] returned a mean under setting [1] of 0.2033. Besides, the Replicate_1 under setting [2] came out at 1.5144. Under setting [3], this compound returned a Replicate_2 of -1.108.

`CCN(CC)CCOC(=O)c1cc(Cl)c(N)cc1OC.Cl` [SDZ-205,557 hydrochloride]: the mean under setting [4] amounted to 2.714. For the setting “sheet LOPAC_screen_w_protease, primary screen with protease, compound at 5 µM, replicate 1”, this compound had a Replicate_1 of 3.796. The Replicate_2 under setting [5] is 1.633.

Under setting [6], `N#CCCN.N#CCCN.O=C(O)/C=C/C(=O)O` [3-Aminopropionitrile fumarate] gave a mean of 0.9446. The compound further had a Replicate_1 under setting [7] of 1.551. Also, the Replicate_2 under setting [8] was 0.3384.

For the compound `COc1ccc2[nH]cc(CCN)c2c1.Cl` [O-Methylserotonin hydrochloride], the “mean (LOPAC_screen_w_protease)” value under setting [9] is recorded as 2.11. Moreover, the “Replicate_1 (LOPAC_screen_w_protease)” value under setting [10] came out at 3.3171. Moreover, the “Replicate_2 (LOPAC_screen_w_protease)” value under setting [11] worked out at 0.9034.

Turning to `Cl.NCCS` [Cysteamine hydrochloride], the “mean (LOPAC screen with protease)” value under setting [12] was found to be 8.502. For the same compound, under setting [13], the “Replicate_1 (LOPAC screen with protease)” value was determined as 9.009. Moreover, the “Replicate_2 (LOPAC screen with protease)” value under setting [14] was found to be 7.996.

As to `CC(C)C[C@H](NC(=O)[C@@H](O)[C@H](N)Cc1ccccc1)C(=O)O` [Bestatin hydrochloride], the inhibition at 5 µM under setting [15] was found to be 1.1% and the inhibition at 5 µM under setting [16] is 3.15%. For the same compound, the “mean (LOPAC_screen_w_protease)” value under setting [9] is listed as 2.127.

Regarding `N[C@@H](CCCC(=O)O)C(=O)O` [L-2-aminoadipic acid], under setting [6], the mean came out at 0.8841. This compound also returned a Replicate_1 under setting [7] of 1.166. Under setting [8], this compound had a Replicate_2 of 0.6027.

Take `CCCCCN(CCCCC)C(=O)C(CCC(=O)O)NC(=O)c1ccc(Cl)c(Cl)c1` (centres unmarked) [Lorglumide sodium]: the inhibition at 5 µM (sheet LOPAC_screen_w_protease, primary screen of LOPAC1280 at 5 µM with protease, mean of the two replicates, read-out: mean) came out at 3.65%; the inhibition at 5 µM (sheet LOPAC_screen_w_protease, primary screen of LOPAC1280 at 5 µM with protease, replicate 1, read-out: Replicate_1) stood at 2.9%; the inhibition at 5 µM (sheet LOPAC_screen_w_protease, primary screen of LOPAC1280 at 5 µM with protease, replicate 2, read-out: Replicate_2) is 4.4%.

`C/C=C(/C)C(=O)O[C@H]1C(C)=C2[C@H]([C@@H]1OC(=O)CCCCCCC)[C@@](C)(OC(C)=O)C[C@H](OC(=O)CCC)[C@@]1(O)[C@H]2OC(=O)[C@@]1(C)O` [Thapsigargin]: the inhibition at 5 µM under setting [17] is 0.567%, the inhibition at 5 µM under setting [18] came out at 2.46% and the inhibition at 5 µM under setting [19] was -1.32%.

Turning to `Br.CN=c1nc(-c2ccccc2)n(-c2ccccc2)s1` [SCH-202676 hydrobromide], the “mean (LOPAC screen with protease)” value under setting [12] was 100.647. Further, under setting [13], the “Replicate_1 (LOPAC screen with protease)” value worked out at 100.647. Besides, under setting [14], the “Replicate_2 (LOPAC screen with protease)” value amounted to 100.647.

On to `OC[C@H]1NC[C@H](O)[C@@H](O)[C@@H]1O` [1-Deoxynojirimycin hydrochloride], for which the inhibition at 5 µM amounted to 2.78% (sheet LOPAC_screen_w_protease, primary screen with protease, compound at 5 µM, mean of two replicates, read-out: mean); 4.02% (sheet LOPAC_screen_w_protease, primary screen with protease, compound at 5 µM, replicate 1, read-out: Replicate_1); 1.54% (sheet LOPAC_screen_w_protease, primary screen with protease, compound at 5 µM, replicate 2, read-out: Replicate_2).

`NC(CCP(=O)(O)O)C(=O)O` (racemic) [(±)-2-Amino-4-phosphonobutyric acid]: the mean under setting [6] amounted to 1.206. Under setting [7], this compound yielded a Replicate_1 of 2.762. Besides, under setting [8], the Replicate_2 was -0.351.

Turning to `Cl.NC1CCN(c2cccc(Cl)n2)CC1` [SR 57227A], the mean under setting [6] is 1.074. Moreover, the Replicate_1 under setting [7] was determined as 1.181. The Replicate_2 under setting [8] is given as 0.9673.

For the compound `O=C1NCC2(CCN(CCc3ccccc3)CC2)O1` [Fenspiride hydrochloride], the inhibition at 5 µM was 2.48% under setting [20], 4.11% under setting [21] and 0.843% under setting [22].

As for `Br.COc1ccccc1N1CCN(CCCCN2C(=O)c3ccccc3C2=O)CC1` [NAN-190 hydrobromide], the “mean (LOPAC_screen_w_protease)” value under setting [9] stood at 1.999. In addition, the “Replicate_1 (LOPAC_screen_w_protease)” value under setting [10] turned out to be 4.031. The “Replicate_2 (LOPAC_screen_w_protease)” value under setting [11] is -0.03323.

On to `C[C@H](N)CN1CCc2ccc(Br)cc21.C[C@H](N)CN1CCc2ccc(Br)cc21.O=C(O)/C=C/C(=O)O` [VER-3323 hemifumarate salt], for which, under setting [23], the mean is 0.8173. Under setting [24], this compound returned a Replicate_1 of 0.78. Under setting [25], this compound came in with a Replicate_2 of 0.8545.

With `NCCCCCC(=O)O` [6-Aminohexanoic acid], the inhibition at 5 µM is, setting by setting: under setting [15], 2.45%; under setting [16], 1.78%. Moreover, the “mean (LOPAC_screen_w_protease)” value under setting [9] came out at 2.116.

Consider `CC(=O)OCC1=C(C(=O)[O-])N2C(=O)[C@@H](NC(=O)CCC[C@@H](N)C(=O)[O-])[C@H]2SC1.[Zn+2]` [Cephalosporin C zinc salt], for which the mean under setting [1] is 0.2554. Also, the Replicate_1 under setting [2] is given as 0.7755. The same compound displayed a Replicate_2 under setting [3] of -0.2647.

Regarding `O=C1CCc2cc(OCCCCc3nnnn3C3CCCCC3)ccc2N1` [Cilostazol], the inhibition at 5 µM under setting [20] amounted to 2.16%, the inhibition at 5 µM under setting [21] stood at 1.9% and the inhibition at 5 µM under setting [22] turned out to be 2.42%.

Regarding `Cc1ccc(C(=O)Nc2ccc(S(=O)(=O)O)c3cc(S(=O)(=O)O)cc(S(=O)(=O)O)c23)cc1NC(=O)c1cccc(NC(=O)Nc2cccc(C(=O)Nc3cc(C(=O)Nc4ccc(S(=O)(=O)O)c5cc(S(=O)(=O)O)cc(S(=O)(=O)O)c45)ccc3C)c2)c1` [Suramin hexasodium], the inhibition at 5 µM was 1.22% under setting [26], 2.66% under setting [27] and -0.222% under setting [28].

Compound `CNCCc1ccc(O)c(O)c1.Cl` [N-Methyldopamine hydrochloride] gave a mean under setting [6] of 1.304. The Replicate_1 under setting [7] came out at 0.8088. For the same compound, the Replicate_2 under setting [8] is 1.799.

Turning to `Cn1c(=O)c2c(nc(C=Cc3cccc(Cl)c3)n2C)n(C)c1=O` [8-(3-Chlorostyryl)caffeine], the mean under setting [23] was 0.7326. The compound further gave a Replicate_1 under setting [24] of 1.9699. The Replicate_2 under setting [25] is on record as -0.5047.

For `Nc1nc2ccc(OC(F)(F)F)cc2s1` [Riluzole], the inhibition at 5 µM was 2.44% under setting [15] and 0.68% under setting [16]. Moreover, the “mean (LOPAC_screen_w_protease)” value (LOPAC1280 primary screen with protease, 5 µM compound, mean of two replicates) was 1.558.

As for `Br.CCSC(=N)N` [S-Ethylisothiourea hydrobromide], the mean under setting [6] worked out at 1.099. Under setting [7], this compound had a Replicate_1 of 2.674. Under setting [8], this compound returned a Replicate_2 of -0.4768.

`C[C@@]1(C2CCCC2)Cc2cc(OCC(=O)O)c(Cl)c(Cl)c2C1=O` [R(+)-IAA-94] registered a mean under setting [4] of 3.0784. This compound also returned a Replicate_2 under setting [5] of 3.637.

As to `CN(C)CCCC1(c2ccc(F)cc2)OCc2cc(C#N)ccc21` (centres unmarked) [Citalopram hydrobromide], the inhibition at 5 µM reads like this: under setting [26], 1.26%; under setting [27], 1.98%; under setting [28], 0.536%.

In the case of `Cc1nc(N=Nc2cc(S(=O)(=O)[O-])c3cc([N+](=O)[O-])cc(S(=O)(=O)[O-])c3c2)c(COP(=O)([O-])[O-])c(C=O)c1O.[Na+].[Na+].[Na+].[Na+]` [PPNDS tetrasodium], the mean (sheet LOPAC_screen_w_protease, LOPAC1280 primary screen with protease, 5 µM compound, mean of the two replicates) stood at 5.708. Moreover, the Replicate_1 (sheet LOPAC_screen_w_protease, LOPAC1280 primary screen with protease, 5 µM compound, replicate 1) is listed as 4.956. Where the note is “sheet LOPAC_screen_w_protease, LOPAC1280 primary screen with protease, 5 µM compound, replicate 2”, the Replicate_2 was found to be 6.46.

On to `O=C(O)c1cccnc1C(=O)O` [Quinolinic acid], for which the inhibition at 5 µM by setting is: under setting [17], 0.58%; under setting [18], -0.228%; under setting [19], 1.39%.

As for `Cc1nc(N=Nc2ccc(C(=O)O)cc2)c(COP(=O)(O)O)c(C=O)c1O` [MRS 2159], the “mean (LOPAC_screen_w_protease)” value under setting [9] was 1.803. For the same compound, under setting [10], the “Replicate_1 (LOPAC_screen_w_protease)” value is on record as 1.948. In addition, the “Replicate_2 (LOPAC_screen_w_protease)” value under setting [11] was found to be 1.658.

As to `CCCCCCCCCCCCCCCCCC(=O)OC(CC(=O)O)C[N+](C)(C)C.[Cl-]` (racemic) [DL-Stearoylcarnitine chloride], the “mean (LOPAC_screen_w_protease)” value under setting [9] was determined as 1.7681. Also, the “Replicate_1 (LOPAC_screen_w_protease)” value under setting [10] is reported as 3.299. In addition, the “Replicate_2 (LOPAC_screen_w_protease)” value under setting [11] is given as 0.2369.
